Columns and labels:
[1] = tested on: WM-266-4 cells; test: Cell Proliferation Inhibitory Test; type: cell-based; details: Homo sapiens, 72 h, cultured three days with test compound, MTT, read-out: 50% cell proliferation inhibitory activity (GI50 value)
Method: WM-266-4 cells (ATCC, USA) were seeded in a 96-well plate and cultured overnight. Then, serial dilutions of the sample containing the test compound were prepared, added to each well and cultured another three days. Thereafter, the cell amount in each well was measured by MTT (MOSMANN, T., Rapid colorimetric assay for cellular growth and survival: application to proliferation and cytotoxicity assays. J. Immunol. Methods, 65, 55-63 (1983)). The 50% cell proliferation inhibitory activity (GI50 value) was calculated from the following formula (3). 100×[(T−T0)/(C−T0)]=50 (3)
Here, T represents values from the test compound added wells, C represents the value from the well to which the test compound was not added for three days, and To represents an initial measured value at the time of addition of the test compound.

[2] = target: T1, human mTOR (Homo sapiens, UniProt P42345); test: mTOR Kinase Activity Inhibition Test; type: biochemical; details: His-tagged mTOR (1362C), biotinylated peptide substrate, ATP, 3 hours at room temperature, fluorescence resonance energy transfer 665 nm/620 nm; read-out: IC50 value of mTOR enzyme inhibitory activity
T1 construct: the portion corresponding to 1362-2549aa at the C terminus of human mTOR; made in house
Method: The kinase activity of mTOR was measured in the presence or absence of a test compound. A substrate peptide is phosphorylated by mTOR kinase activity. A complex of streptavidin-XL665 and anti-phosphorylated S6K (Thr389) antibody/anti-mouse IgG-cryptate binds to this phosphorylated peptide. At this moment, fluorescence resonance energy transfer takes place from antibody/anti-mouse IgG-cryptate exposed to light excitation to XL665, which results in emission of fluorescence at 665 nm. The mTOR kinase activity is detected using this principle.
(1) Sample Preparation and Enzymatic Reaction
An HEK293 cell line that constitutively expresses a His tag fused human mTOR has been established. His tag was introduced into the N terminus of the portion corresponding to 1362-2549aa at the C terminus of human mTOR. Cell lysate was prepared from this HEK293 cell line constitutively expressing His-tagged mTOR (1362C), and His-tagged mTOR (1362C) was purified using the His tag affinity according to a conventional method.
Next, an mTOR enzyme solution was prepared, which contains the aforementioned His-tagged mTOR (1362C) enzyme, 8 μg/mL of biotinylated peptide (Biotin-Ahx-[…]-amide (Sigma)), as well as 50 mM HEPES (pH 7.5), 20 mM MnCl2, 1 mg/ml BSA, an appropriate amount of protease inhibitor cocktail (Complete EDTA free, Roche), 100 ng/ml Calyculin A, 4 μg/ml Cantharidin and 10 mM DTT as other components.
The test compound was dissolved in DMSO, and serial dilutions were prepared with 20 μM ATP solution (50 mM HEPES (pH 7.5), 20 μM ATP) to achieve concentrations necessary for the assay. 5 μL of this compound solution was applied to each well of a 384 well small volume white Greiner plate.
5 μL of mTOR enzyme solution was added to the aforementioned well containing the test compound. After mixing, the mixture was incubated at room temperature for 3 hours to carry out the enzymatic reaction.
The same operation was performed with a solution of DMSO in 20 μM ATP solution as a positive control and with a solution of DMSO in 50 mM HEPES (pH 7.5) as a negative control.
(2) Detection of Enzymatic Reaction
After the enzymatic reaction, 5 μl each of an europium solution (a solution of anti-mouse IgG-cryptate (SCETI Medical Labo K.K.) and anti-phosphorylated S6K (Thr389) antibody (Cell Signaling Technology Inc.) in 50 mM HEPES (pH 7.5), 100 mM EDTA and 1.5 mg/ml BSA) and an XL665 solution (a solution of streptavidin-XL665 (SCETI Medical Labo K.K.) in 50 mM HEPES (pH 7.5), 100 mM EDTA, 0.8 M KF and 1.5 mg/ml BSA) were added in this order and then mixed. The mixture was incubated at 4° C. overnight. On the following day, the mixture was returned to room temperature and irradiated with excitation light at 337 nm. Fluorescence at 620 nm and fluorescence at 665 nm were measured with RUBYstar (BMG).
The mTOR inhibitory activity (%) was calculated using the ratio calculated from the measured values as an index of enzyme activity. Here, the ratio was calculated from the following formula (I). Ratio=10000×665 nm fluorescence value/620 nm fluorescence value (1)
The mTOR enzyme inhibitory activity (%) was calculated from the following formula (2). mTOR enzyme inhibitory activity (%)=100×[(P−S)/(P−N)] (2)
P: Ratio in well of positive control
N: Ratio in well of negative control
S: Ratio in well containing test compound
Further, an optimal curve was calculated based upon each concentration of the test compound prepared in serial dilutions and the mTOR enzyme inhibitory activity (%) at that concentration. The concentration at which 50% inhibition occurred was calculated as the IC50 value of mTOR enzyme inhibitory activity.

T1 sequence (P42345 1362-2549): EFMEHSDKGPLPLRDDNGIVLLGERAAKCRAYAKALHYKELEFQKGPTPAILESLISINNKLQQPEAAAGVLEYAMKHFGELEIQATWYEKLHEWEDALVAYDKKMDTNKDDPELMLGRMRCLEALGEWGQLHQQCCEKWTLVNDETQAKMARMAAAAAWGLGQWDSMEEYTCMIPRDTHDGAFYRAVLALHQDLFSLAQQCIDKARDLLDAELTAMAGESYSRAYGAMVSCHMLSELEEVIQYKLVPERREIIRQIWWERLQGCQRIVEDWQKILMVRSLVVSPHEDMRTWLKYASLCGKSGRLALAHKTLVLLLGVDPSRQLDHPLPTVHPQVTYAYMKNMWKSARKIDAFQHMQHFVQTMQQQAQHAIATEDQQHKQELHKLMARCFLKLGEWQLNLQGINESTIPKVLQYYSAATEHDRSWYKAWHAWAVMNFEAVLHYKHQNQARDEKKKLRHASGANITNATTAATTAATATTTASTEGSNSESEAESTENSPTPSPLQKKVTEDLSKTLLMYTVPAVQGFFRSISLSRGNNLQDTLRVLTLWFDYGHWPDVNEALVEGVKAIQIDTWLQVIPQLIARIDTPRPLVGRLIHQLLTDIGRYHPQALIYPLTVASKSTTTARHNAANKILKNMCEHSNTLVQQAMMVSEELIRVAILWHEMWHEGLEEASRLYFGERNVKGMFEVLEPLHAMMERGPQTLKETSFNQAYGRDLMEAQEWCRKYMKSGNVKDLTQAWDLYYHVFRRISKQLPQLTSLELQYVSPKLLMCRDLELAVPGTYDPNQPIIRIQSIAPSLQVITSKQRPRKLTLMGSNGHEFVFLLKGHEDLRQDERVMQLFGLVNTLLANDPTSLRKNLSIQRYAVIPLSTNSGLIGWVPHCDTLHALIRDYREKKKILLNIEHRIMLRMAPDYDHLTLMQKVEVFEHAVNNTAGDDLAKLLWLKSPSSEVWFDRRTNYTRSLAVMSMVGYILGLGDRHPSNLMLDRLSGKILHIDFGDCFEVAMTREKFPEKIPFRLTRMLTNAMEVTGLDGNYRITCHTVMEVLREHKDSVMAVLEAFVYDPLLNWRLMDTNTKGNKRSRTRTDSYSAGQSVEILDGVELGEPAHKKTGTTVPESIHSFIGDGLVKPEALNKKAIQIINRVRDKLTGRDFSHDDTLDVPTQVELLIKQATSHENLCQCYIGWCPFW

SMILES: O=c1[nH]c2ncc(-c3cnc4[nH]ccc4c3)cc2n1C[C@@H]1COC[C@H]1O (racemic) [Example 61]
- GI50 [1]: < 3000 nM
- IC50 [2]: < 50 nM

SMILES: O=c1[nH]c2ncc(-c3cnc4[nH]ccc4c3)cc2n1C[C@@H]1COC[C@@H]1O (racemic) [Example 62]
- GI50 [1]: < 3000 nM
- IC50 [2]: < 50 nM

SMILES: CO[C@H]1COC[C@H]1Cn1c(=O)[nH]c2ncc(-c3cnc4[nH]ccc4c3)cc21 (racemic) [Example 63]
- GI50 [1]: < 3000 nM
- IC50 [2]: < 50 nM

SMILES: CO[C@@H]1COC[C@H]1Cn1c(=O)[nH]c2ncc(-c3cnc4[nH]ccc4c3)cc21 (racemic) [Example 64, 1-{[trans-4-Methoxytetrahydrofuran-3-yl]methyl}-6-(1H-pyrrolo[2,3-b]pyridin-5-yl)-1,3-dihydro-2H-imidazo[4,5-b]pyridin-2-one]
- GI50 [1]: < 3000 nM
- IC50 [2]: < 50 nM

SMILES: O=c1[nH]c2ncc(-c3cnc4[nH]ccc4c3)cc2n1C[C@H]1COC[C@@H](O)C1 (racemic) [Example 65, 1-{[cis-5-Hydroxytetrahydro-2H-pyran-3-yl]methyl}-6-(1H-pyrrolo[2,3-b]pyridin-5-yl)-1,3-dihydro-2H-imidazo[4,5-b]pyridin-2-one]
- GI50 [1]: < 3000 nM
- IC50 [2]: < 50 nM

SMILES: O=c1[nH]c2ncc(-c3cnc4[nH]ccc4c3)cc2n1C[C@H]1COC[C@H](O)C1 (racemic) [Example 66, 1-{[trans-5-Hydroxytetrahydro-2H-pyran-3-yl]methyl}-6-(1H-pyrrolo[2,3-b]pyridin-5-yl)-1,3-dihydro-2H-imidazo[4,5-b]pyridin-2-one]
- IC50 [2]: < 50 nM

SMILES: CO[C@@H]1COC[C@H](Cn2c(=O)[nH]c3ncc(-c4cnc5[nH]ccc5c4)cc32)C1 (racemic) [Example 67, 1-{[cis-5-Methoxytetrahydro-2H-pyran-3-yl]methyl}-6-(1H-pyrrolo[2,3-b]pyridin-5-yl)-1,3-dihydro-2H-imidazo[4,5-b]pyridin-2-one]
- GI50 [1]: < 3000 nM
- IC50 [2]: < 50 nM

SMILES: CC1(C)CC(Cn2c(=O)[nH]c3ncc(-c4cnc5[nH]ccc5c4)cc32)CCO1 (racemic) [Example 70, 1-[(2,2-Dimethyltetrahydro-2H-pyran-4-yl)methyl]-6-(1H-pyrrolo[2,3-b]pyridin-5-yl)-1,3-dihydro-2H-imidazo[4,5-b]pyridin-2-one]
- GI50 [1]: < 3000 nM
- IC50 [2]: < 50 nM

SMILES: CO[C@@H]1CCC[C@@H](Cn2c(=O)[nH]c3ncc(-c4cnc5[nH]ccc5c4)cc32)C1 (racemic) [Example 104, 1-{[trans-3-Methoxycyclohexyl]methyl}-6-(1H-pyrrolo[2,3-b]pyridin-5-yl)-1,3-dihydro-2H-imidazo[4,5-b]pyridin-2-one]
- GI50 [1]: < 3000 nM
- IC50 [2]: < 50 nM

SMILES: CO[C@H]1CCC[C@@H](Cn2c(=O)[nH]c3ncc(-c4cnc5[nH]ccc5c4)cc32)C1 (racemic) [Example 105, 1-{[cis-3-Methoxycyclohexyl]methyl}-6-(1H-pyrrolo[2,3-b]pyridin-5-yl)-1,3-dihydro-2H-imidazo[4,5-b]pyridin-2-one]
- GI50 [1]: < 3000 nM
- IC50 [2]: < 50 nM

SMILES: O=c1[nH]c2ncc(-c3cnc4[nH]ccc4c3)cc2n1C[C@H]1CC[C@H](O)CO1 (racemic) [Example 111, 2,6-Anhydro-1,3,4-trideoxy-1-[2-oxo-6-(1H-pyrrolo[2,3-b]pyridin-5-yl)-2,3-dihydro-1H-imidazo[4,5-b]pyridin-1-yl]-DL-erythro-hexitol]
- GI50 [1]: < 3000 nM
- IC50 [2]: < 50 nM

SMILES: O=c1[nH]c2ncc(-c3cnc4[nH]ccc4c3)cc2n1C[C@H]1CC[C@@H](O)CO1 (racemic) [Example 112, 2,6-Anhydro-1,3,4-trideoxy-1-[2-oxo-6-(1H-pyrrolo[2,3-b]pyridin-5-yl)-2,3-dihydro-1H-imidazo[4,5-b]pyridin-1-yl]-DL-threo-hexitol]
- GI50 [1]: < 3000 nM
- IC50 [2]: < 50 nM

SMILES: CO[C@@H]1CC[C@H](Cn2c(=O)[nH]c3ncc(-c4cnc5[nH]ccc5c4)cc32)OC1 (racemic) [Example 113, 2,6-Anhydro-1,3,4-trideoxy-5-O-methyl-1-[2-oxo-6-(1H-pyrrolo[2,3-b]pyridin-5-yl)-2,3-dihydro-1H-imidazo[4,5-b]pyridin-1-yl]-DL-threo-hexitol]
- GI50 [1]: < 3000 nM
- IC50 [2]: < 50 nM

SMILES: CO[C@H]1CCO[C@@H](Cn2c(=O)[nH]c3ncc(-c4cnc5[nH]ccc5c4)cc32)C1 (racemic) [Example 114, 2,6-Anhydro-1,3,5-trideoxy-4-O-methyl-1-[2-oxo-6-(1H-pyrrolo[2,3-b]pyridin-5-yl)-2,3-dihydro-1H-imidazo[4,5-b]pyridin-1-yl]-DL-threo-hexitol]
- GI50 [1]: < 3000 nM
- IC50 [2]: < 50 nM

SMILES: O=c1[nH]c2ncc(-c3cncc4ccccc34)cc2n1CC1CCOCC1 [Example 11, 6-Isoquinolin-4-yl-1-(tetrahydro-2H-pyran-4-ylmethyl)-1,3-dihydro-2H-imidazo[4,5-b]pyridin-2-one]
- IC50 [2]: 100 to 5000 nM

SMILES: O=c1[nH]c2ncc(-c3ccnc4ccccc34)cc2n1CC1CCOCC1 [Example 12, 6-Quinolin-4-yl-1-(tetrahydro-2H-pyran-4-ylmethyl)-1,3-dihydro-2H-imidazo[4,5-b]pyridin-2-one]
- IC50 [2]: 100 to 5000 nM

SMILES: O=c1[nH]c2ncc(-c3cccc4ncccc34)cc2n1CC1CCOCC1 [Example 13, 6-Quinolin-5-yl-1-(tetrahydro-2H-pyran-4-ylmethyl)-1,3-dihydro-2H-imidazo[4,5-b]pyridin-2-one]
- IC50 [2]: 100 to 5000 nM

SMILES: O=c1[nH]c2ncc(-c3cnc4[nH]cnc4c3)cc2n1CC1CCOCC1 [Example 22, 1-(Tetrahydro-2H-pyran-4-ylmethyl)-1,3-dihydro-2H,3′H-6,6′-biimidazo[4,5-b]pyridin-2-one]
- IC50 [2]: < 50 nM

SMILES: O=C1Cc2cc(-c3cnc4[nH]c(=O)n(CC5CCOCC5)c4c3)cnc2N1 [Example 30, 6-(2-Oxo-2,3-dihydro-1H-pyrrolo[2,3-b]pyridin-5-yl)-1-(tetrahydro-2H-pyran-4-ylmethyl)-1,3-dihydro-2H-imidazo[4,5-b]pyridin-2-one]
- IC50 [2]: 100 to 5000 nM

SMILES: O=C(O)c1cc2cc(-c3cnc4[nH]c(=O)n(CC5CCOCC5)c4c3)ccc2[nH]1 [Example 80, 5-[2-Oxo-1-(tetrahydro-2H-pyran-4-ylmethyl)-2,3-dihydro-1H-imidazo[4,5-b]pyridin-6-yl]-1H-indole-2-carboxylic acid]
- IC50 [2]: 100 to 5000 nM

SMILES: O=C1CCOCC1Cn1c(=O)[nH]c2ncc(-c3cnc4[nH]ccc4c3)cc21 (stereo not shown) [Example 106, 1-[(4-Oxotetrahydro-2H-pyran-3-yl)methyl]-6-(1H-pyrrolo[2,3-b]pyridin-5-yl)-1,3-dihydro-2H-imidazo[4,5-b]pyridin-2-one]
- IC50 [2]: < 50 nM

— patent US8436012B2, “Imidazopyridin-2-one derivatives” (Daiichi Sankyo Company, Limited, priority 2008, dated 2013)
